Key:
Assay in all cases: Bliss excess, mean over the matrix (fraction); higher = more synergy
[1] = system: 647-V (Bladder Carcinoma)
Procedure, shortened: (§1)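 Bliss excess equals the observed combination effect minus the expected value EA + EB − EA·EB, where EA and EB are the effects of each agent alone. Combination Emax is the second-highest inhibition within the matrix. Inhibition was scaled from CellTiter-Glo 2.0 luminescence, with 0 set by vehicle wells and 1 by blank wells, after 72 hours of two-drug dosing of cells plated in 1536-well plates.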

A172 (Glioblastoma) = system: A172 (Glioblastoma)
Procedure, shortened: as §1

D-392MG (Glioblastoma) = system: D-392MG (Glioblastoma)
Procedure, shortened: as §1

[2] = system: EFM-192A (Breast Carcinoma)
Procedure, shortened: as §1

[3] = system: GDM-1 (Acute Myeloid Leukemia)
Procedure, shortened: as §1

H4 (Low Grade Glioma) = system: H4 (Low Grade Glioma)
Procedure, shortened: as §1

[4] = system: HCC-827 (Lung Adenocarcinoma)
Procedure, shortened: as §1

[5] = system: HCC1143 (Breast Carcinoma)
Procedure, shortened: as §1

[6] = system: HLE (Hepatocellular Carcinoma)
Procedure, shortened: as §1

MCF7 (Breast Carcinoma) = system: MCF7 (Breast Carcinoma)
Procedure, shortened: as §1

[7] = system: MES-SA (Other Solid Carcinomas)
Procedure, shortened: as §1

MSTO-211H (Mesothelioma) = system: MSTO-211H (Mesothelioma)
Procedure, shortened: as §1

[8] = system: NOMO-1 (Acute Myeloid Leukemia)
Procedure, shortened: as §1

[9] = system: RCC10RGB (Kidney Carcinoma)
Procedure, shortened: as §1

[10] = system: SK-LMS-1 (Other Solid Carcinomas)
Procedure, shortened: as §1

[11] = system: SKN-3 (Head and Neck Carcinoma)
Procedure, shortened: as §1

[12] = system: SNG-M (Endometrial Carcinoma)
Procedure, shortened: as §1

[13] = system: SNU-61 (Colorectal Carcinoma)
Procedure, shortened: as §1

[14] = system: TYK-nu (Ovarian Carcinoma)
Procedure, shortened: as §1

[15] = system: YT (Other Blood Carcinomas)
Procedure, shortened: as §1

| Compound | Bliss excess [1] | Bliss excess (A172 (Glioblastoma)) | Bliss excess (D-392MG (Glioblastoma)) | Bliss excess [2] | Bliss excess [3] | Bliss excess (H4 (Low Grade Glioma)) | Bliss excess [4] | Bliss excess [5] | Bliss excess [6] | Bliss excess (MCF7 (Breast Carcinoma)) | Bliss excess [7] | Bliss excess (MSTO-211H (Mesothelioma)) | Bliss excess [8] | Bliss excess [9] | Bliss excess [10] | Bliss excess [11] | Bliss excess [12] | Bliss excess [13] | Bliss excess [14] | Bliss excess [15] |
| --- | --- | --- | --- | --- | --- | --- | --- | --- | --- | --- | --- | --- | --- | --- | --- | --- | --- | --- | --- | --- |
| CC1(C)CCC(CN2CCN(c3ccc(C(=O)NS(=O)(=O)c4ccc(NCC5CCOCC5)c([N+](=O)[O-])c4)c(Oc4cnc5[nH]ccc5c4)c3)CC2)=C(c2ccc(Cl)cc2)C1 [Venetoclax] + C[C@@H]1COCCN1C2=NC(=NC(=C2)C3(CC3)[S@](=N)(=O)C)C4=C5C=CNC5=NC=C4 [AZD6738] (first compound max 1 µM, 7x7, partner max 10 µM) | -0.0317 | -0.0141 | -0.0807 | -0.0377 | -0.0163 | -0.0301 | -0.0418 | -0.0573 | -0.063 | 0.0003 | 0.0105 | -0.0344 | 0.015 | -0.0242 | -0.0884 | -0.043 | -0.0296 | 0.0295 | -0.0315 | 0.0174 |
| CC1(C)CCC(CN2CCN(c3ccc(C(=O)NS(=O)(=O)c4ccc(NCC5CCOCC5)c([N+](=O)[O-])c4)c(Oc4cnc5[nH]ccc5c4)c3)CC2)=C(c2ccc(Cl)cc2)C1 [Venetoclax] + C[C@@H](Nc1cc(F)cc(F)c1)c1cc(C(=O)N(C)C)cc2c(=O)cc(N3CCOCC3)oc12 [AZD8186] (first compound max 1 µM, 7x7, partner max 3 µM) | -0.0019 | -0.0414 | -0.061 | -0.0501 | 0.15 | -0.0302 | -0.0146 | -0.0141 | -0.0364 | -0.0499 | -0.0299 | -0.0052 | 0.0654 | -0.0866 | -0.014 | -0.0192 | -0.0551 | -0.0314 | -0.0103 | 0.0317 |
| CC1(C)CCC(CN2CCN(c3ccc(C(=O)NS(=O)(=O)c4ccc(NCC5CCOCC5)c([N+](=O)[O-])c4)c(Oc4cnc5[nH]ccc5c4)c3)CC2)=C(c2ccc(Cl)cc2)C1 [Venetoclax] + Cc1cc2ncnn2cc1Nc1ncc2c(n1)n(C1CCOCC1)c(=O)n2C [AZD7648] (first compound max 1 µM, 7x7, partner max 10 µM) | 0.0316 | -0.0385 | -0.0374 | -0.0046 | 0.0419 | -0.0541 | 0.0085 | 0.0481 | -0.024 | -0.0267 | -0.0384 | -0.0564 | 0.02 | -0.0536 | -0.0292 | -0.0193 | -0.0516 | 0.0023 | -0.0074 | -0.0667 |
| CC1(C)CCC(CN2CCN(c3ccc(C(=O)NS(=O)(=O)c4ccc(NCC5CCOCC5)c([N+](=O)[O-])c4)c(Oc4cnc5[nH]ccc5c4)c3)CC2)=C(c2ccc(Cl)cc2)C1 [Venetoclax] + Cn1cnc2c(F)c(Nc3ccc(Br)cc3Cl)c(C(=O)NOCCO)cc21 [Selumetinib] (first compound max 1 µM, 7x7, partner max 3 µM) | -0.0064 | -0.0176 | -0.0331 | -0.0245 | 0.0554 | 0.006 | -0.0212 | -0.0093 | -0.0267 | -0.058 | -0.0129 | -0.0393 | 0.0999 | -0.079 | -0.029 | 0.019 | -0.0282 | 0.0136 | -0.0594 | 0.0297 |
